Measured values as given in PubChem BioAssay (NCI).
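A five-concentration, 48-hour dose response in 96-well plates underlies each endpoint, interpolated linearly between surrounding concentrations. GI50 is the concentration that inhibits growth by half. Definition used: TGI = concentration required for complete inhibition of growth.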

How the values were obtained:
Assay in all cases: NCI anticancer screen, dose series, 48 h
K-562 leukemia = test system: K-562 leukemia
KM12 colon = test system: KM12 colon
M14 melanoma = test system: M14 melanoma
NCI-H226 lung = test system: NCI-H226 lung
SF-539 CNS = test system: SF-539 CNS
SN12C renal = test system: SN12C renal
U251 CNS = test system: U251 CNS
OVCAR-8 ovarian = test system: OVCAR-8 ovarian
DU-145 prostate = test system: DU-145 prostate
NCI/ADR-RES ovarian = test system: NCI/ADR-RES ovarian

| SMILES | TGI (K-562 leukemia) [µM] | TGI (KM12 colon) [µM] | TGI (M14 melanoma) [µM] | TGI (NCI-H226 lung) [µM] | TGI (SF-539 CNS) [µM] | TGI (SN12C renal) [µM] | TGI (U251 CNS) [µM] | TGI (OVCAR-8 ovarian) [µM] | GI50 (DU-145 prostate) [µM] | TGI (DU-145 prostate) [µM] | GI50 (K-562 leukemia) [µM] | GI50 (KM12 colon) [µM] | GI50 (M14 melanoma) [µM] | GI50 (NCI-H226 lung) [µM] | GI50 (NCI/ADR-RES ovarian) [µM] | TGI (NCI/ADR-RES ovarian) [µM] | GI50 (OVCAR-8 ovarian) [µM] | GI50 (SF-539 CNS) [µM] | GI50 (SN12C renal) [µM] | GI50 (U251 CNS) [µM] |
| --- | --- | --- | --- | --- | --- | --- | --- | --- | --- | --- | --- | --- | --- | --- | --- | --- | --- | --- | --- | --- |
| CN1CCN(C)C1c1cccc(C2N(C)CCN2C)c1 | > 100 | > 100 | > 100 | > 100 | > 100 | > 100 | > 100 | – | – | – | – | – | – | – | – | – | – | – | – | – |
| COc1ccc(C2C(N)=NCC2c2ccccn2)cc1 (stereo not given) | > 100 | > 100 | > 100 | > 100 | > 100 | > 100 | > 100 | > 100 | – | – | – | – | – | – | – | – | – | – | – | – |
| Cc1c(C(=O)NN)nnn1-c1ccnc2c(C(F)(F)F)cccc12 | > 100 | > 100 | > 100 | > 100 | > 100 | > 100 | – | > 100 | > 100 | > 100 | > 100 | > 100 | > 100 | > 100 | > 100 | > 100 | > 100 | > 100 | 76.5 | – |
| NS(=O)(=O)c1ccc(NC(=O)c2cccc3c(=O)c4ccccc4[nH]c23)cc1 | > 100 | 73.6 | > 100 | > 100 | > 100 | > 100 | > 100 | > 100 | – | – | – | – | – | – | – | – | – | – | – | – |
| CC1CCCC(C(=O)/C(=C/c2cccc(Cl)c2)C(=O)C(=O)O)C1 (stereo not given) | 47.4 | 30.6 | 68.5 | > 100 | 64.9 | > 100 | 32.5 | 40 | – | – | – | – | – | – | – | – | – | – | – | – |
| O=C1c2ccccc2-c2c1c1ccccc1c(=O)n2CCNCCCNCCn1c2c(c3ccccc3c1=O)C(=O)c1ccccc1-2 | – | – | 0.536 | 1.66 | 1.36 | 0.436 | 0.371 | 0.361 | 0.0736 | 0.739 | – | 0.0193 | 0.257 | 0.64 | – | – | 0.0101 | 0.0848 | 0.011 | 0.146 |
| Cc1ccc(-c2nc(C(Cl)Cl)n3nc(-c4ccccc4)cc3n2)cc1 | > 100 | – | > 100 | > 100 | – | > 100 | 1.53 | > 100 | – | – | 1.07 | – | > 100 | > 100 | 0.476 | 3.76 | 0.512 | – | > 100 | 0.322 |
| COc1ccc2c(c1)[C@@]13CCN4CC5=CCO[C@H]6CC(=O)N2[C@H]1[C@H]6[C@H]5C[C@H]43 | – | > 100 | > 100 | 30.9 | > 100 | > 100 | > 100 | > 100 | – | > 100 | – | – | – | – | – | > 100 | – | – | – | – |
| Oc1c(Br)cc(CN(Cc2cc(Br)c(O)c(Br)c2)C2CCCCC2)cc1Br | > 100 | > 100 | > 100 | > 100 | – | > 100 | > 100 | > 100 | – | > 100 | – | – | – | – | – | > 100 | – | – | – | – |
| N#Cc1c(N)c(C(=O)O)nn(-c2cccc(C(F)(F)F)c2)c1=O | > 100 | > 100 | > 100 | – | > 100 | > 100 | > 100 | > 100 | – | – | – | – | – | – | – | – | – | – | – | – |
| COC(=O)NC/C=C\c1nc(CC/C=C\C(=O)OC2CC3CC(=O)O[C@@H](/C=C/CC(C)C)C[C@@H]4CCC(C)C(C[C@@H](OC)CC(C2)O3)O4)co1 (stereo not given in full) | 12.2 | > 100 | > 100 | > 100 | 38.3 | – | 72.4 | > 100 | 4.59 | > 100 | < 0.01 | 2.67 | 7.36 | 24.4 | 38.3 | > 100 | 53 | < 0.01 | – | < 0.01 |
| COC(=O)c1c(O)ccc2[nH]c(C)c(C#N)c12 | > 100 | > 100 | > 100 | 70.6 | – | > 100 | > 100 | > 100 | > 100 | > 100 | 55.3 | 39.5 | 25.9 | 28.5 | > 100 | > 100 | 43.2 | – | 49 | 44.8 |
| Oc1c2c(c(O)c3ccccc13)=N[C@@H](c1ccccc1)[C@H](c1ccccc1)N=2 | > 100 | > 100 | > 100 | > 100 | > 100 | > 100 | > 100 | > 100 | – | – | – | – | – | – | – | – | – | – | – | – |
| CC/C=C\C/C=C\C1CC(=O)NCCCNCCCCN1 (stereo not given) | – | > 100 | > 100 | > 100 | > 100 | > 100 | > 100 | > 100 | – | – | – | – | – | – | – | – | – | – | – | – |
| NC(N)=N/N=C/c1c(-c2ccccn2)nc2sc(Cl)cn12 | 13.8 | 15.1 | 15.9 | – | 3.49 | 13.3 | 15.1 | 13.5 | 7.68 | 14.4 | 3.4 | 8.05 | 7.6 | – | 13.6 | 35.6 | 6.32 | 1.54 | 6.84 | 8.28 |
| C=C(COC(C)=O)CC(/C=C(\C)CCC=C(C)C)OC(C)=O (stereo not given) | > 100 | > 100 | > 100 | > 100 | > 100 | > 100 | > 100 | > 100 | – | – | – | – | – | – | – | – | – | – | – | – |
| Cn1c(N)nc2c(nc(OCc3ccccc3)n2C2OC(CO)C(O)C2O)c1=O (stereo not given) | > 100 | > 100 | > 100 | > 100 | – | > 100 | > 100 | > 100 | – | > 100 | – | – | – | – | – | – | – | – | – | – |
| O=c1c2ccccc2c2c3c1cccc3c1cccc3c(=O)c4ccccc4c2c31 | > 100 | > 100 | > 100 | > 100 | > 100 | > 100 | > 100 | > 100 | – | – | – | – | – | – | – | – | – | – | – | – |
| O=C(Nc1ccc(S(=O)(=O)N[C@@H](C(=O)O)c2ccccc2)cc1)c1ccc(F)cc1 | > 100 | > 100 | > 100 | – | > 100 | > 100 | > 100 | > 100 | – | – | – | – | – | – | – | – | – | – | – | – |
| O=C1c2ccccc2-c2cccc3ccc(Cc4ccccc4)c1c23 | > 100 | > 100 | > 100 | – | > 100 | > 100 | > 100 | > 100 | – | – | – | – | – | – | – | – | – | – | – | – |
